Measured values taken from article PMC4260628 (Chembiochem : a European journal of chemical biology, 2014).
Where two headings read alike, the source gives them in different places.

Tests used:
TxtE [1] = molecular target: T1, TxtE (Streptomyces scabiei, UniProt C9ZDC6); assay: biochemical; assay type: binding, Streptomyces scabies
TxtE [2] = molecular target: T1, TxtE; conditions: read-out: previously reported Kd; TxtE with L-tryptophan; cited from earlier work
TxtE [3] = molecular target: T1, TxtE; assay type: binding, Streptomyces scabies; conditions: TxtE in E. coli cell lysate 1.9 – 2.8 μM, substrate 250–500 μM, 15 min, pH 8

## N[C@@H](Cc1c[nH]c2ccccc12)C(=O)O [Substrate 1, L-tryptophan]
TxtE [1]
  Kd: 39 µM
TxtE [2]
  Kd: 44 to 60 µM
TxtE [3]
  Spectral Shift: type I
